Patent publication EP0205068B1, “Lysergic-acid amides, process for their preparation and medicaments containing them” (ARZNEIMITTELWERK DRESDEN GmbH, priority 1985, dated 1986)
Values joined by “and” are separate entries in the source; they are usually repeats but may differ in a detail not shown here. Equal entries are not always repeated.

Experiments:
Maus = assay: Porsolt swim test (immobility duration); format: in vivo
Vena femoralis = assay: Contraction of isolated human vessel preparations, vein; set-up: species or system menschlichen
Text: (§1) 6. Untersuchungen an isolierten menschlichen Gefäßpräparaten
(§2) (Vena und Arteria femoralis)
(§3) Glusa, E. und F. Markwardt, Pharmacolgy 24 (1982) 287 sowie Naunyn-Schmiedebergs-Arch. Pharmacol. 323 (1983) 101

[1] = tested on: transcallosal ausgelöster Potentiale; assay: Influence on transcallosally evoked potentials in awake rats fixed in a stereotactic apparatus; format: in vivo, weiblichen Wistarratten; conditions: 1 mg/kg i.p.
Text: 3. Beeinflussung transcallosal ausgelöster Potentiale
Methodik in Anlehnung an C.Giurgea und F.Moyersoons, Arch.Int.Pharmacodyn.199,(1972) 67
Die Untersuchung wurde an wachen, im stereotaktischen Apparat fixierten weiblichen Wistarratten durchgeführt.

[2] = tested on: vas deferens des Meerschweinchens; assay: Noradrenaline antagonism on isolated vas deferens; conditions: Cavia porcellus, read-out: Hemmung (x̄ ± sx̄) in %
Text: 5. Noradrenalin-Antagonismus
Noradrenalin-Antagonismus am vas deferens des Meerschweinchens

Ratten = assay: SFT test (spinal cord fixation time); format: in vivo
Text: 4. SFT-Test (Spinal cord fixation time)
C.Giurgea und F.Mouravieff-Lesmisse Arch.Intern.Pharmacodyn.191 (1971) 279
Es ist die Anzahl der Tiere mit persistierender Asymmetrie zur Gesamtzahl der eingesetzten Ratten aufgeführt.

Arteria femoralis = assay: Contraction of isolated human vessel preparations, artery; set-up: species or system menschlichen
Text: as §1, §2, §3

SMILES	Immobilitätsdauer (sec) x̄ ± sx̄ (Maus; 1 mg/kg i.p.)	Amplitudenbeeinflussung b.max.Reizintensität neg.Welle ([1]; 60')	Amplitudenbeeinflussung b.max.Reizintensität pos.Welle ([1]; 60')	Amplitudenbeeinflussung b.mittl.Reizintensität neg.Welle ([1]; 60')	Amplitudenbeeinflussung b.mittl.Reizintensität pos.Welle ([1]; 60')	Amplitudenbeeinflussung b.max.Reizintensität neg.Welle ([1]; 120')	Amplitudenbeeinflussung b.max.Reizintensität pos.Welle ([1]; 120')	Amplitudenbeeinflussung b.mittl.Reizintensität neg.Welle ([1]; 120')	Amplitudenbeeinflussung b.mittl.Reizintensität pos.Welle ([1]; 120')	Amplitudenbeeinflussung b.max.Reizintensität neg.Welle ([1]; 180')	Amplitudenbeeinflussung b.max.Reizintensität pos.Welle ([1]; 180')	Amplitudenbeeinflussung b.mittl.Reizintensität neg.Welle ([1]; 180')	Amplitudenbeeinflussung b.mittl.Reizintensität pos.Welle ([1]; 180')	Amplitudenbeeinflussung b.max.Reizintensität neg.Welle ([1]; VW = Vorwert (pre-dose value))	Amplitudenbeeinflussung b.max.Reizintensität pos.Welle ([1]; VW = Vorwert (pre-dose value))	Amplitudenbeeinflussung b.mittl.Reizintensität neg.Welle ([1]; VW = Vorwert (pre-dose value))	Amplitudenbeeinflussung b.mittl.Reizintensität pos.Welle ([1]; VW = Vorwert (pre-dose value))	Immobilitätsdauer (sec) x̄ ± sx̄ (Maus; 3 mg/kg p.o.)	further results
CC(=O)OCCN(CCOC(C)=O)C(=O)[C@@H]1C[C@@H]2c3cccc4[nH]cc(c34)C[C@H]2N(C)C1 [1 a, 9,10-Dihydrolysergsäure-bis-(β-acetoxyethyl)amid]	202,6 ± 1,8 sec	0,40±0,03 µV	0,42±0,03 µV	0,23±0,03 µV	*0,26±0,03 µV	*0,40±0,02 µV	0,41±0,02 µV	*0,25±0,03 µV	*0,27±0,03 µV	0,39±0,02 µV	0,42±0,02 µV	0,23±0,03 µV	*0,25±0,02 µV	0,34±0,03 µV	0,38±0,03 µV	0,18±0,02 µV	0,19±0,02 µV		pharmakologisch wertvolle Nebenwirkungen (Vena femoralis; statement in words): Tonisierung der Venen; inhibition at 10 µM ([2]; Konzentration 10^-5 mol/l): 60.7%; inhibition at 1 µM ([2]; Konzentration 10^-6 mol/l): 14.7%; inhibition at 0.1 µM ([2]; Konzentration 10^-7 mol/l): 4.4%; Anzahl der Tiere mit persistierender Asymmetrie zur Gesamtzahl der eingesetzten Ratten (Ratten; Dosis ip. 2 mg/kg): 5/10
CCC(=O)OCCN(CCOC(=O)CC)C(=O)[C@@H]1C[C@@H]2c3cccc4c3c(cn4C)C[C@H]2N(C)C1 [1 e, 1-Methyl-9,10-dihydrolysergsäure-bis-(ß-propionylethyl)-amid]																		210,0 ± 3,8 sec	
CC(=O)OCCN(CCOC(C)=O)C(=O)[C@@H]1C[C@@H]2c3cccc4c3c(cn4Cc3cccc(F)c3)C[C@H]2N(C)C1 [1 l, 1-(3'-Fluorbenzyl)-9,10-dihydrolysergsäure-bis-(ß-acetoxyethyl)-amid]	199,4 ± 2,3 sec																		
CO[C@]12C[C@@H](COC(=O)c3cncc(Br)c3)CN(C)[C@@H]1Cc1cn(C)c3cccc2c13 [Nicergolin, 10a-Methoxy-1,6-dimethyl-ergolin-8ß-methanol-(5'-bromnicotinat), reference compound]	196,7 ± 5,6 sec	0,41±0,03 µV	0,40±0,02 µV	0,24±0,02 µV	0,24±0,01 µV	0,38±0,02 µV	0,36±0,02 µV	0,23±0,02 µV	0,22±0,02 µV	0,39±0,04 µV	0,39±0,04 µV	0,21±0,01 µV	0,19±0,02 µV	0,39±0,02 µV	0,39±0,02 µV	0,23±0,02 µV	0,23±0,02 µV		Anzahl der Tiere mit persistierender Asymmetrie zur Gesamtzahl der eingesetzten Ratten (Ratten; Dosis ip. 1 mg/kg): 2/10; Anzahl der Tiere mit persistierender Asymmetrie zur Gesamtzahl der eingesetzten Ratten (Ratten; Dosis ip. 3 mg/kg): 4/6
CN1C[C@H](C(=O)N[C@]2(C)O[C@@]3(O)[C@@H]4CCCN4C(=O)[C@H](Cc4ccccc4)N3C2=O)C[C@@H]2c3cccc4[nH]cc(c34)C[C@H]21 [Dihydro-ergo-tamin]																			%-Kontraktion bezogen auf NA (Vena femoralis): 61 ± 24% and 52 ± 18%; %-Kontraktion bezogen auf NA (Arteria femoralis): 8,8 ± 8%
CC(=O)OCCN(CCOC(C)=O)C(=O)[C@@H]1C[C@@H]2c3cccc4c3c(cn4C)C[C@H]2N(C)C1 [1 c, 1-Methyl-9,10-dihydrolysergsäure-bis-(ß-acetoxyethyl)-amid]																		203,6 ± 5,9 sec	
